Reference: article PMC12467033, “Exploring the Inhibitory Potential of Six Porphyrin Compounds Against α-Amylase and α-Glucosidase Linked to Diabetes” (Biomolecules, 2025)
Several values for one entry are separate records, joined by “and”; a condition that tells them apart may be missing. Identical values can stand only once. Like-named read-outs stand apart in the source and are kept apart here.

What was measured:
α-amylase [1] = biological target: T1, α-amylase (Sus scrofa, UniProt P00690); test: Three-dimensional fluorescence spectroscopy of α-amylase complexes; conditions: 298 K; TAPP 2.5, THPP 10, TCPP 10, Fe–TCPP 12.5, Ni–TCPP 17.5, Cu–TCPP 10 μg/mL
T1 sequence (P00690 16-511): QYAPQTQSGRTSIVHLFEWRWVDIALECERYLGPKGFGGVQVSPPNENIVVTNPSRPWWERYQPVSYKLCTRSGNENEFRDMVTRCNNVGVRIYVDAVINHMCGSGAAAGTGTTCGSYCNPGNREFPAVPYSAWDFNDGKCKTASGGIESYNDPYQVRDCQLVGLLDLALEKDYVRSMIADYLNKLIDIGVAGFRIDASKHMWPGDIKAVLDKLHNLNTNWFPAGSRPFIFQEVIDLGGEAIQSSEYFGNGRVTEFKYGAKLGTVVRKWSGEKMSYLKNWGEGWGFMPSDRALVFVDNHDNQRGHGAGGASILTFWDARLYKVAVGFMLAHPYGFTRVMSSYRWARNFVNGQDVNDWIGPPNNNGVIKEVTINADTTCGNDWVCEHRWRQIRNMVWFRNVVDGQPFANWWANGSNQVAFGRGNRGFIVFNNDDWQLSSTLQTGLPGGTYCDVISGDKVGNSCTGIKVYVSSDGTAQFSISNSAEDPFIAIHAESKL
Description: At 298 K, with excitation wavelengths ranging from 200 to 600 nm (2 nm increments) and emission wavelengths from 200 to 600 nm, the influence of small molecules on enzyme conformation was assessed by examining peaks in 3D fluorescence spectra [41].

α-amylase [2] = biological target: T1, α-amylase; test: Fluorescence quenching, binding and thermodynamics with α-amylase
Excerpt: In the α-amylase experiment, a series of porphyrins and amylase (200 U/L) were mixed in a volume ratio of 1:1.
(§1) The Stern–Volmer equation [35] was adopted to determine the quenching mechanisms between six porphyrin compounds and both enzymes in the experimental group, with Formula (6):(6) F0/F=1+Ksv[Q]=1+Kqτ0[Q]
(§2) The Stern–Volmer equation was adapted based on experimental data to more accurately characterize the quenching behavior [36], with Formula (7):(7) F0/F=e^Ksv[Q]=e^Kqτ0[Q]
(§3) In the formula, the fluorescence quenching ratio was calculated as F0/F, where F0 corresponds to the emission intensity of pure α-amylase solution (control) and F denotes the intensity measured after the incremental addition of porphyrin ligands. KSV and Kq denote the Stern–Volmer quenching constant and the bimolecular quenching rate constant, respectively, τ0 (10^−8 s) is the average fluorescence lifetime of the fluorophore in the absence of quencher, and [Q] indicates the concentration of porphyrin compounds.
(§4) Due to the presence of an internal filtration effect, a decrease in the fluorescence intensity of the system may occur. Therefore, all fluorescence data were corrected using Formula (8) to eliminate the internal filtration effect.(8) Fcor=Fobse^(Aex+Aem)/2
(§5) The evaluation of the interaction forces between porphyrin compounds and the two enzymes can be achieved by calculating thermodynamic parameters. When both ΔH^0 and ΔS^0 are positive, the predominant interaction force is hydrophobic. When both ΔH^0 and ΔS^0 are negative, the main forces are hydrogen bonding and van der Waals forces. When ΔH^0 < 0 and ΔS^0 > 0, the primary interaction is electrostatic attraction.
(§6) The thermodynamic parameters were calculated using Formulas (9) and (10), and then the Van’t Hoff plot for the interactions between the porphyrin compounds and the two enzymes was generated by plotting lnKa on the Y-axis versus 1/T on the X-axis.(9) lnKa=−ΔH^0/RT+ΔS^0/R (10) ΔG^0=ΔH^0−TΔS^0=−RTlnKa

α-amylase [3] = biological target: T1, α-amylase; test: Mode of α-AMY inhibition (reversibility, Lineweaver–Burk kinetics); format: biochemical
Excerpt: (§7) In the experiment, the concentration of the fixed substrate Gal-G2-α-CNP/pNPG solution was 5 mmol/L, and the concentrations of the two enzymes (100, 200, 300, 400 U/L) were used to determine the effect of different concentrations of porphyrins on enzyme activity. The concentration of the enzyme was 200 U/L, and the concentration of the substrate Gal-G2-α-CNP/pNPG solution (2.5, 5, 7.5, 10 mmol/L) was used to determine the effect of different concentrations of porphyrins on the enzyme-catalyzed substrate activity.
(§8) Upon identifying the type of inhibition, the kinetic equations vary for different inhibition types.
(§9) In the formula, v, Vmax, Km, Ki, and Kis represent the reaction rate, maximum reaction rate, Michaelis constant, and free enzyme inhibition constant, respectively, and the binding enzyme inhibition constant. [S] denotes the substrate concentration. [I] denotes the inhibitor concentration.

α-glucosidase [4] = biological target: T2, α-glucosidase (Saccharomyces cerevisiae, UniProt P53341); test: Fluorescence quenching, binding and thermodynamics with α-glucosidase
Description: In the α-amylase experiment, a series of porphyrins and amylase (200 U/L) were mixed in a volume ratio of 1:1. In the α-glucosidase experiment, the glucosidase concentration was 400 U/L, mixed in a volume ratio of 1:1; the samples were maintained at three different temperatures (298, 304, and 310 K) for 30 min, with excitation at 280 nm and emission scanning from 300 to 500 nm.
as §1, §2, §3, §4, §5, §6

α-glucosidase [5] = biological target: T2, α-glucosidase; format: biochemical
Excerpt: as §7, §8, §9

[6] = enzyme 100–400 U/L, substrate 5 mmol/L
[7] = enzyme–substrate complex inhibition constant
[8] = free enzyme inhibition constant

T2 sequence (P53341 whole entry): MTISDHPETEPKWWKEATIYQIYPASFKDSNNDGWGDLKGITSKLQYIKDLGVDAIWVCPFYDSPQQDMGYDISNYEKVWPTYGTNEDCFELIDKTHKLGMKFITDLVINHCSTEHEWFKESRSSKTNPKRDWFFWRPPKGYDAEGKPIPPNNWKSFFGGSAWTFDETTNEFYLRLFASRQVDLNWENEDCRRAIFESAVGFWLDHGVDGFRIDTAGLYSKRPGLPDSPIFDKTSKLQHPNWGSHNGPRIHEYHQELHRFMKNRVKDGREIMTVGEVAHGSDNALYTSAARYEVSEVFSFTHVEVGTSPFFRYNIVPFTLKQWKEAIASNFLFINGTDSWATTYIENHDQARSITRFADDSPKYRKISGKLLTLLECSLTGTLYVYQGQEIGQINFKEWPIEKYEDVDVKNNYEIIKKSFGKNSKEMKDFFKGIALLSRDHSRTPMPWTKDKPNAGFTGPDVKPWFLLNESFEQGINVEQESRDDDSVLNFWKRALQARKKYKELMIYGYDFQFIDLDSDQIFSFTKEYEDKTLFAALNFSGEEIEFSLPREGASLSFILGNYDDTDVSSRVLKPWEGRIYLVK

## O=C(O)c1ccc(-c2c3nc(c(-c4ccc(C(=O)O)cc4)c4ccc([nH]4)c(-c4ccc(C(=O)O)cc4)c4nc(c(-c5ccc(C(=O)O)cc5)c5ccc2[nH]5)C=C4)C=C3)cc1.[Cu+2] [Cu–TCPP, copper (II) meso-tetra (4-carboxyphenyl)porphyrin]
α-amylase [1]
  Peak 1 Fluorescence Intensity: 313.1
  Peak 2 Fluorescence Intensity: 16.48
α-amylase [2]; 298–310 K
  Ka: 10^3–10^4 L/mol
α-amylase [2]; Stern–Volmer plots, 298–310 K
  quenching mechanism of α-amylase fluorescence: pure static quenching
α-amylase [2]; T 298 K
  Ka (binding constant): 0.20 ± 0.01 ×10^5 L/mol
  Kq: 4.37 ± 0.07 ×10^12 L/mol/s
  Ksv: 4.37 ± 0.07 ×10^4 L/mol
  n (number of binding sites): 0.93
  ΔG^0: -5.868 ± 0.012 kcal/mol
α-amylase [2]; T 304 K
  Ka (binding constant): 0.10 ± 0.01 ×10^5 L/mol
  Kq: 4.33 ± 0.03 ×10^12 L/mol/s
  Ksv: 4.33 ± 0.03 ×10^4 L/mol
  n (number of binding sites): 0.84
  ΔG^0: -5.566 ± 0.0072 kcal/mol
α-amylase [2]; T 310 K
  Ka (binding constant): 0.06 ± 0.01 ×10^5 L/mol
  Kq: 4.32 ± 0.02 ×10^12 L/mol/s
  Ksv: 4.32 ± 0.02 ×10^4 L/mol
  n (number of binding sites): 0.78
  ΔG^0: -5.337 ± 0.012 kcal/mol
α-amylase [2]; Van’t Hoff, 298–310 K
  ΔH^0: -19.04 ± 0.017 kcal/mol
  ΔS^0: −185.16 ± 0.05 J/mol/k
α-amylase [3]; C 25 μg/mL
  Km: 2.8021 ± 0.0410 µg/mL
  Vmax: 0.1101 ± 0.0016 ΔOD/min
α-amylase [3]; C 50 μg/mL
  Km: 3.1685 ± 0.0729 µg/mL
  Vmax: 0.1050 ± 0.0024 ΔOD/min
α-amylase [3]; C 100 μg/mL
  Km: 3.5949 ± 0.0569 µg/mL
  Vmax: 0.0923 ± 0.0015 ΔOD/min
α-amylase [3]; C 150 μg/mL
  Km: 3.9016 ± 0.1355 µg/mL
  Vmax: 0.0860 ± 0.0031 ΔOD/min
α-amylase [3]; C 200 μg/mL
  Km: 4.2470 ± 0.0673 µg/mL
  Vmax: 0.0785 ± 0.0012 ΔOD/min
α-amylase [3]; Lineweaver–Burk plots
  type of inhibition of α-amylase: mixed type
α-amylase [3]; [6]
  reversibility of inhibition of α-amylase: reversible inhibition
α-amylase [3]; [7]
  Kis: 420.9420 ± 0.2189 µg/mL
α-amylase [3]; [8]
  Ki: 135.8043 ± 0.1608 µg/mL
α-glucosidase [4]; 310 K
  binding constants K: (0.69 ± 0.01) × 10^5 L·mol^−1
α-glucosidase [4]; Stern–Volmer plots, 298–310 K
  quenching mechanism of α-glucosidase fluorescence: static quenching
α-glucosidase [4]; T 298 K
  Ka (binding constant): 55.21 ± 0.11 ×10^5 L/mol
  Kq: 7.35 ± 0.09 ×10^12 L/mol/s
  Ksv: 7.35 ± 0.09 ×10^4 L/mol
  n (number of binding sites): 1.44
  ΔG^0: -9.192 ± 0.019 kcal/mol
α-glucosidase [4]; T 304 K
  Ka (binding constant): 7.38 ± 0.04 ×10^5 L/mol
  Kq: 6.74 ± 0.03 ×10^12 L/mol/s
  Ksv: 6.74 ± 0.03 ×10^4 L/mol
  n (number of binding sites): 1.25
  ΔG^0: -8.162 ± 0.012 kcal/mol
α-glucosidase [4]; T 310 K
  Ka (binding constant): 0.69 ± 0.01 ×10^5 L/mol
  Kq: 5.05 ± 0.02 ×10^12 L/mol/s
  Ksv: 5.05 ± 0.02 ×10^4 L/mol
  n (number of binding sites): 1.03
  ΔG^0: -6.859 ± 0.0096 kcal/mol
α-glucosidase [4]; Van’t Hoff, 298–310 K
  ΔH^0: -67.103 ± 0.0311 kcal/mol
  ΔS^0: −812.45 ± 0.17 J/mol/k
α-glucosidase [5]
  Km: 3.3657 ± 0.0431 µg/mL and 3.8284 ± 0.1475 µg/mL and 4.7824 ± 0.1009 µg/mL and 5.4948 ± 0.1841 µg/mL and 6.4626 ± 0.1103 µg/mL
α-glucosidase [5]; C 5 μg/mL
  Vmax: 0.1496 ± 0.0019 ΔOD/min
α-glucosidase [5]; C 10 μg/mL
  Vmax: 0.1344 ± 0.0052 ΔOD/min
α-glucosidase [5]; C 25 μg/mL
  Vmax: 0.1028 ± 0.0022 ΔOD/min
α-glucosidase [5]; C 50 μg/mL
  Vmax: 0.0718 ± 0.0024 ΔOD/min
α-glucosidase [5]; C 100 μg/mL
  Vmax: 0.0473 ± 0.0008 ΔOD/min
α-glucosidase [5]; Lineweaver–Burk plots
  type of inhibition of α-glucosidase: mixed type
α-glucosidase [5]; [6]
  reversibility of inhibition of α-glucosidase: reversible inhibition
α-glucosidase [5]; [7]
  Kis: 38.9429 ± 0.1021 µg/mL
α-glucosidase [5]; [8]
  Ki: 13.7332 ± 0.0823 µg/mL
